# Assay results as given in patent US4973578A, “Synthetic peptides derived from the alpha-subunit of human lycoprotein hormones” (Mayo Foundation for Medical Education and Research, priority 1988, dated 1990).
# Residues, ends and D or L forms follow the SMILES beside them.
# Biological target: T1, TSH receptor on human thyroid membranes (Homo sapiens, UniProt P16473)
# T1 construct: Thyroid tissue obtained at surgery from patients with Graves' disease was prepared as described by Takahashi et al; from tissue; host or cells: human thyroid tissue from Graves' disease patients, 2000xg membrane fraction
# Assay: TSH radioreceptor assay: inhibition of 125I-bTSH binding to human thyroid membrane preparations
# Experimental: Thyroid tissue obtained at surgery from patients with Graves' disease was prepared as described by Takahashi et al., J. Clin. Endocrinol. Metab. 47:870 (1978), the disclosure of which is incorporated herein. Briefly, the tissue was dissected free of fibrous material, minced with scissors, and homogenized with Polytron homogenizer. The 2000×g fraction was collected by centrifugation, washed and resuspended in 40 mM Tris, 0.1% Bovine Serum Albumin (BSA) pH 7.4 at a concentration of 100 mg equivalents of wet tissue per milliliter. The preparation was stored at -70° C. until used for assay.
# Highly purified bovine TSH (30 IU/mg, supplied by Dr. J. G. Pierce, UCLA) was radio-iodinated (Na^125 I, Amersham, Chicago) by a gentle lactoperoxidase procedure described by Takahashi et al., supra, then purified by Sephadex G-100 chromatography.
# The membrane assay incubation mixture consisted of […] of the 2000×g membrane fraction, 0.125 ng ^125 I bTSH (approximately 20,000 cpm, 5×10^-12 M), 100 ul of 1% Triton X-100 and noted amounts of test materials in a final volume of 0.5 ml of 40 mM Tris-HCl pH 7.4 plus 0.1% BSA. Nonspecific binding was determined by addition of excess unlabeled bTSH (200 mU/ml, Sigma, St. Louis). After 2 hrs incubation at 25° C., 200 ul of 5 mg/ml bovine gamma globulin and 1 ml 30% polyethylene glycol 6000 (Baker, Phillipsburg, N.J.) in 1M NaCl was added to each tube and the tubes centrifuged at 4000 rpm for 25 minutes. The supernatants were aspirated and pellets counted in a gamma counter. Specific binding averaged 25% of total counts.
# FIG. 1 reports 5×10^-12 M labeled bTSH incubated with 10 mg equivalents (wet weight) of 2000×g fraction of thyroid membranes with varying concentrations of unlabeled TSH or synthetic α-subunit peptides. Nonspecific binding was determined in the presence of excess unlabeled TSH.
# T1 sequence (P16473 21-764): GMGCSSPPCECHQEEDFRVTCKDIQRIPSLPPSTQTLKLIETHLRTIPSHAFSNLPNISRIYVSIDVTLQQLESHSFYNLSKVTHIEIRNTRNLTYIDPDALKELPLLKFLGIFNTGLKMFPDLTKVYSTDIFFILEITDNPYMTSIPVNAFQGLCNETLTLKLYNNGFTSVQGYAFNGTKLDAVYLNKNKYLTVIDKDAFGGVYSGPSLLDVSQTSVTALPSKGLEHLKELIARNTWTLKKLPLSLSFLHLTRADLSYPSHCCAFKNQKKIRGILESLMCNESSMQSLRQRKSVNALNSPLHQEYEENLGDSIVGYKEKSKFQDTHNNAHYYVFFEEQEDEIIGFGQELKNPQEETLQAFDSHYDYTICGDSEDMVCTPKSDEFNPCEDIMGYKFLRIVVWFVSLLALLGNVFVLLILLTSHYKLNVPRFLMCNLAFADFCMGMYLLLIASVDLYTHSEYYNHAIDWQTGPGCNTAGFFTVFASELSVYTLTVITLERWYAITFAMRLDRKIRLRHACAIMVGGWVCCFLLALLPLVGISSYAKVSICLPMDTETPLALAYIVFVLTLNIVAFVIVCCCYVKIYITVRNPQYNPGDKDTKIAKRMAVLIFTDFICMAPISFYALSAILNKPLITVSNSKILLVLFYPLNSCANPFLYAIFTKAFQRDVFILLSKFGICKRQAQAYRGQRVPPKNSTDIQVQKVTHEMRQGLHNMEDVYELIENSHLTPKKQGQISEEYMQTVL
structure (smiles),measurement,setting,value
"CSCC[C@H](NC(=O)[C@H](CS)NC(=O)[C@H](CCC(N)=O)NC(=O)[C@@H](N)CC(C)C)C(=O)NCC(=O)N[C@@H](CS)C(=O)N[C@@H](CS)C(=O)N[C@@H](Cc1ccccc1)C(=O)N[C@@H](CO)C(=O)N[C@@H](CCCNC(=N)N)C(=O)N[C@@H](C)C(=O)N[C@@H](Cc1ccc(O)cc1)C(=O)N1CCC[C@H]1C(=O)N[C@H](C(=O)N1CCC[C@H]1C(=O)N[C@@H](CC(C)C)C(=O)N[C@@H](CCCNC(=N)N)C(=O)N[C@@H](CO)C(=O)N[C@@H](CCCCN)C(=O)N[C@@H](CCCCN)C(=O)N[C@H](C(N)=O)[C@@H](C)O)[C@@H](C)O [α26-46, Leu--Gln--Cys--Met--Gly--Cys--Cys--Phe--Ser--Arg--Ala--Tyr--Pro--Thr--Pro--Leu--Arg--Ser--Lys--Lys--Thr--(NH2)] (H-LQCMGCCFSRAYPTPLRSKKT-NH2)",displacement of 125I-bTSH label,"at concentrations greater than 1×10^-5 m, FIG. 1",more than 80%
same,IC50,"human thyroid membrane homogenates, ± S.E., read-out: bTSH ED50 (effective dose necessary to inhibit binding of 125I-bTSH by 50%)",10.8 ± 0.3 µM
same,"inhibition of 125I-bTSH binding, result in words","human thyroid membranes, FIG. 1",dose dependent inhibition
